In one test the test system is MAXF 401. The test is described as follows: In vitro activity against solid tumor cell lines (FACS analysis method a). The conditions noted are these: Homo sapiens, MAXF401, Breast. It counts as cell-based. On the procedure: (§1) Human breast cancer cell lines MAXF 401 and MAXF MCF-7 (Oncotest GmbH, Freiburg, Germany)
(§2) The assay is carried out as described in Pietschmann et al., 2012 and Brandl et al. 2012. Briefly, 10^5 cells were fixed in 1 ml 70% EtOH with 0.05% Tween-20 overnight at 4° C. The following day, cells were washed with 3 ml 38 mM sodium citrate, pH 7.4, and incubated for 20 min at 37° C. in 0.5 ml 38 mM sodium citrate, pH 7.4, supplemented with 50 μg/ml propidium iodide and 10 μg/ml RNase-A. DNA contents of the cells were measured by fluorescence-activated cell sorter (FACS). This method allows detection of the apoptotic subG1-fraction, which has a DNA content below 2n due to apoptotic cleavage of DNA. Equally, the cell cycle profile can be assessed with this method.
(§3) The novel HDAC6 inhibitors were tested in a panel of tumor cell lines for cytostatic/toxic activities (see Table 2).
For orientation: A flow cytometer gives signals particle by particle.

The next test relates to MAXF MCF-7. The test is described as above. It counts as cell-based. The note with it: Homo sapiens, MCF7, Breast. On the procedure:
as §1, §2, §3

Another test relates to UXF 1138. The description is as above. Type of test: cell-based. The conditions noted are these: Homo sapiens, Uterus. The protocol:
Human uterus cancer cell line UXF 1138 (Oncotest GmbH, Freiburg, Germany)
as §2, §3

A further test deals with HCT-116 cells. The experiment in a line: Western blot analysis in HCT-116 colon cancer cells. Type of test: cell-based, human. The protocol:
FIG. 5. Various cancer cells were treated for 24 h as shown and tested by Western blot analysis. […] Human colon cancer cell lines RKO (ATCC Accession No: CRL-2577) and HCT-116 (DSMZ Accession No: ACC-581). Western Blot Analysis a […] Protein lysate ([…]) was boiled in Laemmli buffer and separated on SDS-polyacrylamide gel electrophoresis for western blotting with specific antibodies. All lysates were assessed by Bradford assay for protein concentrations.
(In general: A western blot detects proteins with antibodies after separation by electrophoresis.)

The test system of test [1] is MV4-11, BV173 and HCT116 cells. The experiment in a line: Dose and time dependency of MARB1, Western blot method b. It counts as cell-based, human. The note with it: 50 nM. On the procedure: Cells were seeded on a 6 well plate and incubated as shown. The blots were quantified with Image Studio Lite Version 5.0. (A) 1 Mio cells per sample were seeded and after 2 h adaption time the cells were stimulated as shown, followed by incubation and harvesting of the cells. Tubulin and HSP90 were used as loading control. […] HSP90 and Tubulin were used as loading control. n=1 (C) 200,000 cells were seeded in a 6 well plate and incubated over night for adhesion. B-Actin was used as loading control. n=1
For the examination of the time dependency of MARB1 MV4-11, BV173 and HCT116 cells were tested by western blot. All cells were seeded on a 6 well plate. The blots were quantified with Image Studio Lite Version 5.0. (A) 1 Mio cells per sample were seeded and after 2 h adaption time the cells were stimulated as shown. Following the incubation, the cells were harvested as described earlier. Tubulin and HSP90 were used as loading control. […] HSP90 was used as loading control. […]
Western Blot analysis method b was used for the blots illustrated in FIGS. 6 to 9 and 11: Equal amounts of proteins were separated with a sodium dodecyl sulfate-polyacrylamide gel electrophoresis (SDS-PAGE) using an electrophoresis buffer by Laemmli with 1% SDS. […] Fluorescence coupled secondary antibodies (LI-COR) were used and the signal was measured on the Odyssey to detect the proteins.

In the next test the test system is HEK293T cells. The experiment in a line: HDAC6 overexpression model in HEK293T cells, Western blot. Type of test: cell-based, human. The note with it: 500 nM MARB1, 48 h. The protocol:
However, it is mention worth that MARB1 increases the amount of acetylated tubulin in cells with HDAC6 overexpression. 400,000 cells were seeded on a 6 well plate and incubated for 24 h for adapting and the transfection was allowed for 48 h. […] HSP90 and Tubulin were used as loading control. The cells were collected on ice using Trypsin/EDTA. The overexpression was identified by using the HDAC6 antibody described in Antibodies and Plasmids. n=3 (B) The cells were transfected as described previously and collected under sterile conditions using Trypsin/EDTA. Cells were centrifuged and resuspended in new DMEM with FBS and pen/strep. The cells were splitted 1:2 and seeded per sample into two wells. After 24 h adhesion time cells were stimulated with MARB1 for 48 h. Thereafter cells were collected on ice using Trypsin/EDTA and prepared for SDS-PAGE. […] The samples were generated as described previously. HSP90 was used as loading control. n=1 […]
Western Blot analysis method b was used for the blots illustrated in FIGS. 6 to 9 and 11: Equal amounts of proteins were separated with a sodium dodecyl sulfate-polyacrylamide gel electrophoresis (SDS-PAGE) using an electrophoresis buffer by Laemmli with 1% SDS. […] Fluorescence coupled secondary antibodies (LI-COR) were used and the signal was measured on the Odyssey to detect the proteins. […]

What is called IC50 is the point on the concentration scale where inhibition reaches its midpoint. Read a high IC50 as lower potency. Regarding `CN1C(=O)C2CN(Cc3c2c2ccccc2n3Cc2ccc(C(=O)NO)cc2)C1=O` (centres unmarked) [MARB1, N-Hydroxy-4-((4-methyl-3,5-dioxo-3,4,5,6-tetrahydro-2,6-methano[1,3]diazocino[5,6-b]indol-11(1H)-yl)methyl)benzamide], the IC50 in the test with MAXF 401 is 2.28 µM; in the test on MAXF MCF-7, 2.33 µM; in the test with UXF 1138, 1.58 µM. Besides, the “tubulin acetylation and degradation” value in the test with HCT-116 cells (1 μM, 24 h (FIG. 5B)) is “triggers the hyperacetylation of tubulin without causing its degradation”; in the test on HCT-116 cells (HCT-116 cells, 24 h) it was “starts the hyperacetylation of tubulin in colon carcinoma cells (RKO and HCT-116 cells) without destroying it”. The acetylated tubulin result in test [1] (incubation for 30 min) is “increase of acetylated tubulin is detectable”. In addition, the “inhibition compared with Tubastatin A” value in test [1] (short time course) is “faster and at later time points much more effective than Tubastatin A”. Also, in the test on HEK293T cells, the “tubulin acetylation in HDAC6 flag transfected cells” value is “high induction of tubulin acetylation”.

Values taken from patent US10106540B2, “HDAC6 inhibitors and their uses” (Universität Regensburg, priority 2014, dated 2018).
